Data on one compound can be found in US20250114451A1, “REDUCING POLYSORBATE DEGRADATION IN PROTEIN FO[…] LOW AMOUNTS OF CITRIC ACID” (LONZA LTD, priority 2022, published 2025).

SMILES strings stand for the structures.

For this data set the following is noted: 0.1 mM, 1 mM, 10 mM, 20 mM citric acid vs 0 mM; Rituximab Protein A eluate 1.4 mg/mL, 0.02% (w/v) PS80, pH 6; 2 weeks and 4 weeks at 40° C.

Experimental: A formulation buffer containing 25 mM L-His/L-His HCl at pH 6.0, 600 mM sucrose and 0.05% (w/v) PS80 was prepared. The solution was filtered over a 0.22 μm PVDF Durapore® sterile filter.
A second solution of 40 mM citric acid at pH 6.0 was prepared and filtered over a 0.22 μm PVDF Durapore® sterile filter. In addition to the 40 mM citric acid stock solution, dilutions of the 40 mM citric acid solution at a target concentration of 20 mM, 2 mM and 0.2 mM using water were prepared.
Five protein formulation samples were prepared each by spiking 320 μL of the downstream purification sample (Rituximab Protein A eluate, 18 g/L) into 1680 μL of the above prepared formulation buffer in five different particle-free Nalgene bottles. […]
Analyzing polysorbate degradation in protein formulation samples 1.2 mL of each of the protein formulation sample were aliquoted into particle-free Nalgene tubes and placed into a 40° C. stability chamber. The samples were analysed after 2 week and 4 weeks of incubation using HPLC-FMA against a standard curve of intact PS80 in water.
The HPLC-FMA measurement was performed using a high-performance liquid chromatography (HPLC) system (Waters Alliance e2695) equipped with an isocratic pump, fluorescence detector (Waters 2475 FLR Detector), auto sampler and knitted reaction coil 1 mL (Supelco #57410-U). […] Fluorescence was measured at λex=350 nm and λem=420 nm. […]

`O=C(O)CC(O)(CC(=O)O)C(=O)O` [citric acid, Citric acid monohydrate]: the “PS80 concentration / polysorbate degradation in protein formulation” value was “effective in reducing polysorbate degradation”.
